Data published in patent publication US10905700B2, “Chemoprevention of colorectal cancer” (SOFAR SPA, priority 2012, dated 2021).

Experiments:
Assay type in all cases: cell-based
[1] = test system: μ-protocadherin, E-cadherin, p21^waf1 and KLF4 messenger expression in CaCo2 cells; test: QRT-PCR analysis of mRNA of β-catenin signal pathway genes in CaCo2 cells; details: CaCo2, 96 hours; 5-ASA 20 mM, ASA 10 mM
Procedure: (§1) The cell lines CaCo2 and HT29 of colorectal adenocarcinoma obtained from the ATCC (Rockville, Md., USA) were grown in a DMEM culture medium (Euroclone, Devon, UK), to which were added 10% foetal bovine serum (Lonza, Walkersville, Md., USA) inactivated at heat and 1 mM of L-glutamine (Euroclone). The 5-aminosalicylic acid (5-ASA, SOFAR S.p.A., Milan, Italy) and acetylsalicylic acid (ASA, Sigma Aldrich, St Louise, Mo., USA) were dissolved in a culture medium in a concentration of respectively 20 and 10 mM. The vitamin D3 (VD3) (1 alpha, 25 dihydroxyvitamin D3, calcitriol, Sigma Aldrich) was diluted in the culture medium at a concentration of 10^−7 M. For the experiments conducted with the cell line HT29, 300,000 cells were sown for each sample and 5-ASA, vitamin D3 or the combination of 5-ASA and VD3 were added to each well. For the experiments conducted with the cell line CaCo2, on the other hand, 300,000 cells were again sown for each sample, but adding 5-ASA or ASA to each well. The treated cells were then subjected to a cell count every 24 hours to monitor the anti-proliferation effect of the different stimuli. After 96 hours of treatment all the cells were collected, resorbed and the RNA was extracted by means of the “Qiagen total RNA purification kit” following the manufacturer's instructions (Qiagen, Valencia, Calif.). The integrity and concentration of the RNA were tested using the Bio-Analyzer technique (Applied Biosystem, Foster City, Calif.). 100 ng total of RNA were then retrotranscribed using the High Capacity cDNA Archive Kit (Applied Biosystems) on the basis of the instructions provided by the manufacturer. The QRT-PCR was then carried out with an ABI PRISM 7900 (Applied Biosystems) sequence detecting system for quantifying the relative levels of mRNA measured in the various samples. The triggers and probes for amplifying the mRNA of the μ-protocadherin, E-cadherin, p21^waf-1, KLF4 and glyceraldehyde 3-phosphate dehydrogenase (GAPDH) were devised by Applied Biosystems. Each sample of cDNA was processed in triplicate in 50 μl of reaction volume using the Taqman Universal PCR Master Mix (Applied Biosystems). Thermal cyclisation was started with initial denaturation at 50° C. for 2 minutes and at 90° C. for 10 minutes followed by 40 cycles of 15 seconds at 95° C. and 1 minute at 60° C. The QRT-PCR signals were evacuated using the corresponding quantification method ΔΔCt (Livak K J, Schmittgen T D. Relative gene expression data were analysed using real-time quantitative PCR and the 2(-Delta Delta C(T)) Method. Methods 2001; 25(4):402-8). This procedure calculates the relative difference in gene expression of the target gene normalised on the endogen control (GAPDH) and compared with a calibrating sample. The values obtained were expressed as a relative quantity (RQ) of the variation in the messenger levels.
On the samples taken from these cell cultures and from other cultures used as a control, the levels of messenger RNA of the genes listed in the previous paragraph (see FIG. 2) was determined by Quantitative Real Time RT-PCR. The obtained results have shown that the messenger expression of the μ-protocadherin, E-cadherin, p21^waf1 and KLF4 genes were induced respectively 3.8, 2.4, 8.0 and 5.5 times after treatment with 5-ASA 20 mM (FIG. 4), confirming the data previously observed on the cell line HT29. […] This datum is not surprising, considering the redundancy and heterogeneity that characterise molecular regulation of the gene p21^waf1, the expression of which is not only regulated by the proliferation signalling pathway of the β chain, explored in our experimental conditions through the evaluation of the codifying genes for μ-protocadherin, E-cadherin and KLF4, but also by numerous signalling pathways.

[2] = test system: colorectal adenocarcinoma cell line CaCo2; test: Growth curve (cell count) of cell line CaCo2 treated with 5-ASA and ASA; details: CaCo2, 96 hours; for cellularity "fold change" value / mortality / survival of treated cells: concentration of 20 mM of the analysed drugs
Procedure: as §1
In order to characterise further the profile of efficacy and safety associated with the chemopreventive properties of 5-ASA, a series of experiments was conducted of the same type as the series explained previously, in which a comparative analysis was conducted of the biological effects determined on cancer colonocytes following treatment with 5-ASA and with aspirin (ASA), i.e. the main drug of the family of NSAIDs. […]

[3] = test system: colorectal adenocarcinoma cell line HT29; test: Growth curve (cell count every 24 hours) of cell line HT29; details: HT29, 96 hours of stimulation; 5-ASA 20 mM, VD3 10^-7 M, alone or combined; control 14 expansions
Procedure: The cell lines CaCo2 and HT29 of colorectal adenocarcinoma obtained from the ATCC (Rockville, Md., USA) were grown in a DMEM culture medium (Euroclone, Devon, UK), to which were added 10% foetal bovine serum (Lonza, Walkersville, Md., USA) inactivated at heat and 1 mM of L-glutamine (Euroclone). The 5-aminosalicylic acid (5-ASA, SOFAR S.p.A., Milan, Italy) and acetylsalicylic acid (ASA, Sigma Aldrich, St Louise, Mo., USA) were dissolved in a culture medium in a concentration of respectively 20 and 10 mM. […] The QRT-PCR was then carried out with an ABI PRISM 7900 (Applied Biosystems) sequence detecting system for quantifying the relative levels of mRNA measured in the various samples. […] The QRT-PCR signals were evacuated using the corresponding quantification method ΔΔ[…]. Relative gene expression data were analysed using real-time quantitative PCR and the 2(-Delta Delta C(T)) Method. […] The values obtained were expressed as a relative quantity (RQ) of the variation in the messenger levels. The colorectal adenocarcinoma cell line HT29, which was chosen for its responsiveness to the VD3 deriving from the corresponding VDR receptor, was subjected to “in vitro” treatment with 5-ASA 20 mM and VD3 10^-7 M, used individually and in association, in order to quantify the antiproliferative effect determined by the compounds analysed on cancerous colonocytes. […]

[4] = test system: μ-protocadherin, E-cadherin, p21^waf1 and KLF4 messenger expression in HT29 cells; test: QRT-PCR analysis of mRNA of genes regulating proliferation, differentiation and apoptosis in HT29 cells; details: HT29, 96 hours; 5-ASA 20 mM, VD3 10^-7 M, alone or combined; RQ vs calibrator, normalised on GAPDH
Procedure: The cell lines CaCo2 and HT29 of colorectal adenocarcinoma obtained from the ATCC (Rockville, Md., USA) were grown in a DMEM culture medium (Euroclone, Devon, UK), to which were added 10% foetal bovine serum (Lonza, Walkersville, Md., USA) inactivated at heat and 1 mM of L-glutamine (Euroclone). The 5-aminosalicylic acid (5-ASA, SOFAR S.p.A., Milan, Italy) and acetylsalicylic acid (ASA, Sigma Aldrich, St Louise, Mo., USA) were dissolved in a culture medium in a concentration of respectively 20 and 10 mM. The vitamin D3 (VD3) (1 alpha, 25 dihydroxyvitamin D3, calcitriol, Sigma Aldrich) was diluted in the culture medium at a concentration of 10^-7 M. For the experiments conducted with the cell line HT29, 300,000 cells were sown for each sample and 5-ASA, vitamin D3 or the combination of 5-ASA and VD3 were added to each well. For the experiments conducted with the cell line CaCo2, on the other hand, 300,000 cells were again sown for each sample, but adding 5-ASA or ASA to each well. The treated cells were then subjected to a cell count every 24 hours to monitor the anti-proliferation effect of the different stimuli. After 96 hours of treatment all the cells were collected, resorbed and the RNA was extracted by means of the “Qiagen total RNA purification kit” following the manufacturer's instructions (Qiagen, Valencia, Calif.). The integrity and concentration of the RNA were tested using the Bio-Analyzer technique (Applied Biosystem, Foster City, Calif.). 100 ng total of RNA were then retrotranscribed using the High Capacity cDNA Archive Kit (Applied Biosystems) on the basis of the instructions provided by the manufacturer. The QRT-PCR was then carried out with an ABI PRISM 7900 (Applied Biosystems) sequence detecting system for quantifying the relative levels of mRNA measured in the various samples. The triggers and probes for amplifying the mRNA of the μ-protocadherin, E-cadherin, p21^waf-1, KLF4 and glyceraldehyde 3-phosphate dehydrogenase (GAPDH) were devised by Applied Biosystems. Each sample of cDNA was processed in triplicate in 50 μl of reaction volume using the Taqman Universal PCR Master Mix (Applied Biosystems). Thermal cyclisation was started with initial denaturation at 50° C. for 2 minutes and at 90° C. for 10 minutes followed by 40 cycles of 15 seconds at 95° C. and 1 minute at 60° C. The QRT-PCR signals were evacuated using the corresponding quantification method ΔΔ[…]. Relative gene expression data were analysed using real-time quantitative PCR and the 2(-Delta Delta C(T)) Method. Methods 2001; 25(4):402-8). This procedure calculates the relative difference in gene expression of the target gene normalised on the endogen control (GAPDH) and compared with a calibrating sample. The values obtained were expressed as a relative quantity (RQ) of the variation in the messenger levels. In order to check at the molecular level the effects determined on the cell line HT29 by the association 5-ASA/VD3, “Real Time”, quantitative RT-PCR was used to analyse the expression of a series of genes the protein products of which are involved in the regulation of the proliferation, differentiation and apoptosis of cancer colonocytes such as μ-protocadherin, E-cadherin, p21^waf1 and KLF4. This analysis was conducted on cell cultures subjected to 96 hours of treatment with the studied drugs, which were used in the previously disclosed concentrations.

| SMILES | induction of messenger expression of E-cadherin [1] | induction of messenger expression of KLF4 [1] | induction of messenger expression of p21^waf1 [1] [times] | induction of messenger expression of μ-protocadherin [1] | cellularity "fold change" value [2] | mortality / survival of treated cells [2] | antiproliferative effect of ASA 10 mM compared with 5-ASA 20 mM ([2]; 10 mM ASA vs 20 mM 5-ASA (equivalents)) | number of cell expansions compared with the initial number of cells [3] [expansions] | increase in messenger expression of E-cadherin [4] [times] | increase in messenger expression of KLF-4 [4] [times] | increase in messenger expression of p21 [4] [times] | increase in messenger expression of μ-protocadherin [4] [times] |
| --- | --- | --- | --- | --- | --- | --- | --- | --- | --- | --- | --- | --- |
| CC(=O)Oc1ccccc1C(=O)O [ASA, acetylsalicylic acid] | does not, on the other hand, induce | does not, on the other hand, induce | 5.8 | does not, on the other hand, induce | 0.2 | 80% | absolutely superimposable antiproliferative effect |  |  |  |  |  |
| Nc1ccc(O)c(C(=O)O)c1 [5-ASA, 5-aminosalicylic acid] | 2.4 times | 5.5 times | 8.0 | 3.8 times | 1 | all the cells treated with 5-ASA survive |  | 8 | 2.2 | 2.2 | 2.9 | 2.5 |
| C=C1/C(=C\C=C2/CCC[C@]3(C)[C@@H]([C@H](C)CCCC(C)(C)O)CC[C@@H]23)C[C@@H](O)C[C@@H]1O [VD3, 1 alpha, 25 dihydroxyvitamin D3] |  |  |  |  |  |  |  | 10 | 1.7 | 1.6 | 1.5 | 1 |
